{"source": "patent EP1437117A1", "about": "“Use of Sinapic acid and/or its derivatives” (Cognis France S.A., priority 2002, dated 2004)", "key": {"[1]": {"tested_on": "Neuropeptiden wie beispielsweise Substanz P oder CGRP", "test": "Release of neuropeptides", "type": "cell-based", "excerpt": "Die Haut ist ein Gewebe, das mit einer Vielzahl von Nervenfasern durchzogen ist, deren Zellkörper in den dorsalen Ganglien (dorsal root ganglia - DRG) zusammenführen. Neurone des Typs Aδ und C erreichen mit ihren Zellen die Dermis und auch die Epidermis. Typ C Neurone sind für die Detektion von noziceptiven Stimuli verantwortlich. Keratinocyten und Nervenfasern können eine Vielzahl unterschiedlicher Cytokine produzieren, die unter dem Einfluß externer Stimuli ausgeschieden werden und die sensorischen Enden der Nervenfasern stimulieren. Diese setzen dann wiederum Peptide frei, die die metabolische Aktivität der Keratinocyten über Messenger-Moleküle beeinflussen. Auf diese Weise kommunizieren sensorische Nerven und Keratinocyten kontinuierlich miteinander. Eine Disregulation dieses physiologischen Gleichgewichts erklärt viele pathologische Erscheinungen von empfindlicher Haut oder beispielsweise Psoriasis. Es konnte nun festgestellt werden, dass Sinapinsäure und ihre Derivate insbesondere empfindliche Haut dadurch beruhigen, dass sie die Freisetzung von Neuropeptiden wie beispielsweise Substanz P oder CGRP herabsetzen."}, "zellulärer DNA": {"tested_on": "zellulärer DNA", "test": "UV-induced thymine dimer formation in cellular DNA", "type": "cell-based", "details": "induced by UV radiation; topical application", "excerpt": "Es konnte festgestellt werden, dass durch die topische Anwendung von Sinapinsäure und ihren Derivaten insbesondere die Bildung von Thymin-Dimeren in zellulärer DNA, die durch UV-Strahlung induziert wird, vermindert wird. Dadurch kann die Anzahl der Mutationen gesenkt und eine Stärkung des dermalen Immunsystems bewirkt werden. Ein weiterer Gegenstand der Erfindung ist daher die Verwendung von Sinapinsäure und/oder Sinapinsäurederivaten zur Herstellung von kosmetischen und/oder dermopharmazeutischen Zubereitungen zum Schutz vor Thymin-Dimerbildung nach Einfluß von UV-Strahlung in Hautzellen und zur Verbesserung des DNA-Reparaturmechanismus in Hautzellen."}, "[2]": {"details": "in Ethanol; cited from earlier work"}, "[3]": {"tested_on": "Carrageenan-induzierten Rattenpfotenödem-Modell", "details": "after injection into the paw; Chawla AS et al 1993; cited from earlier work"}, "[4]": {"type": "physicochemical", "excerpt": "Vorzugsweise wird jedoch die reine, nicht derivatisierte Sinapinsäure und deren Salze eingesetzt. […] Die entstehenden Abbauprodukte bilden gefärbte übelriechende Substanzen, die auch zu Hautreizungen führen können. Es ist daher ein weiterer Gegenstand der Erfindung Sinapinsäure und/oder ihre Derivate in verkapselter, komplexierter oder adsorbierter Form in den Zubereitungen einzusetzen. Dabei bietet sich insbesondere die Verkapselung in Liposomen oder einer hydrophoben Matrix, die Komplexierung in Cyclodextrinen und die Adsorption an hydrophobe Träger an. Bevorzugt wird Sinapinsäure und/oder ihre Derivate in Mikrokapseln eingearbeitet."}, "dermaler Fibroblasten": {"tested_on": "dermaler Fibroblasten", "test": "Collagen synthesis of dermal fibroblasts", "type": "cell-based", "excerpt": "Die menschliche Haut enthält vorwiegend zwei Typen von Collagen: Collagen Typ I und Collagen Typ III, synthetisiert durch dermale Fibroblasten. Beide Collagentypen stellen wesentliche Strukturkomponenten der extrazellulären Matrix des Bindegewebes dar und tragen in hohem Maße zur Struktur der gesamten Haut bei. Ein wichtiges Kennzeichen alternder Haut ist die Abnahme des Collagengehaltes in der Dermis und eine damit verbundene Abnahme der Elastizität, die zusätzlich durch eine Verschlechterung der Fibroblastenfunktion durch nicht enzymatische Glycosylierung (Glycation) und oxidativen Abbau bewirkt wird. Es wurde nun festgestellt, dass Sinapinsäure und ihre Derivate die Collagensynthese dermaler Fibroblasten stimulieren und auf diese Weise die chronologische und die UV-Strahlungsinduzierte Hautalterung verzögert werden kann. Die Verwendung von Sinapinsäure und/oder Sinapinsäurederivaten zur Herstellung kosmetischer und/oder dermopharmazeutischer Zubereitungen zur Stimulation der Collagensynthese in dermalen Fibroblasten ist daher ein weiterer Gegenstand der Erfindung."}, "[5]": {"tested_on": "Adenosindinukleotide (ADN) der Mitochondrien", "test": "Protection of mitochondrial genome against oxidative stress", "type": "cell-based", "details": "damage caused by oxidative stress", "excerpt": "Sie vermindern die Schädigung des mitochondrialen Genoms, die durch oxidativen Stress bewirkt wird und führen dadurch zu einer Verzögerung der Alterung von Mitochondrien und zu einer Verbesserung des Energiepotentials der Zellen. Somit können Sinapinsäure und ihre Derivate über die Verbesserung der mitochondrialen Funktion und Energiebilanz zum Schutz der Haut gegen Alterung und Faltenbildung, zur Steigerung effektiver Reparaturmechanismen durch Alterung und Sonneneinstrahlung geschädigter Haut und zur verbesserten Wundheilung der Haut entscheidend beitragen."}}, "data": [{"smiles": "COc1cc(/C=C/C(=O)O)cc(OC)c1O", "note": "[Sinapinsäure, 4-Hydroxy-3,5-Dimethoxy-Zimtsäure]", "values": [{"measurement": "Freisetzung von Neuropeptiden wie beispielsweise Substanz P oder CGRP", "setting": "[1]", "result": "herabsetzen"}, {"measurement": "Bildung von Thymin-Dimeren in zellulärer DNA", "setting": "zellulärer DNA", "result": "vermindert"}, {"measurement": "UV-Absorptionsmaximum", "setting": "[2]", "result": 323, "unit": "nm"}, {"measurement": "anti-inflammatorische Wirkung", "setting": "[3]", "result": "anti-inflammatorische Wirkung"}, {"measurement": "chemische Stabilität", "setting": "[4]", "result": "leicht zersetzt"}, {"measurement": "Collagensynthese dermaler Fibroblasten", "setting": "dermaler Fibroblasten", "result": "stimulieren"}, {"measurement": "Wirkung auf Adenosindinukleotide (ADN) der Mitochondrien", "setting": "[5]", "result": "schützende Wirkung"}]}]}
